Reference: patent US20230085307A1, “PYRIDAZINONE COMPOUND AND HERBICIDE” (NISSAN CHEMICAL CORPORATION, priority 2019, published 2023)

system: oval-leafed pondweed; test: Test Example 2: herbicidal activity, application during weed generation under submerged conditions (Table 17, symbol C); assay type: in vivo, oval-leafed pondweed (Monochoria vaginalis); conditions: AAH 320 g/ha; application during weed generation, submerged conditions
Method in brief: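 3-wk visual-criteria score after one water-surface dose. Emulsion formulation, water-diluted to set rate; applied at 1–2 leaf stage; alluvial soil, 4 cm standing water; seeds co-sown; greenhouse 25–30° C.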

| Compound | herbicidal effect rating, C: oval-leafed pondweed |
| --- | --- |
| CCOc1cc(F)ccc1-c1sc2cc(C)ccc2c1-c1c(O)c(C)nn(C)c1=O [3-057] | 3 (Herbicidal rate of 40% or more and less than 70%) |

system: false cleavers; test: Test Example 5: herbicidal effect by foliage application, plastic box (Table 20, symbol Q); assay type: in vivo, false cleavers (Galium spurium); conditions: foliage application, 320 g/ha, three weeks after application
Method in brief: (§1)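 Post-emergence foliar test in sterilized diluvial soil. Compound applied as water-diluted emulsion at a predetermined rate to 14-day-old plants; evaluation at three weeks.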

| Compound | Q: false cleavers, herbicidal effect grade |
| --- | --- |
| CCOc1cc(F)ccc1-c1sc2cc(C)ccc2c1-c1c(O)c(C)nn(C)c1=O [3-057] | 5 (Herbicidal rate of 90% or more (almost completely withered)) |

system: chickweed; test: Test Example 4: herbicidal effect by soil treatment (Table 19, symbol P); assay type: in vivo, common chickweed (Stellaria media); conditions: amount of applied herbicide 320 g/ha
Method in brief: (§2)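 Scoring uses the grading scale of an earlier test, three weeks post-application. Treatment consists of spraying a diluted emulsion formulation across the surface of sterilized diluvial soil in which seeds are buried near 1.5 cm deep; boxes are kept in a greenhouse between 25° C. and 30° C.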

| Compound | P: chickweed, herbicidal effect grade |
| --- | --- |
| CCOc1cc(F)ccc1-c1sc2cc(C)ccc2c1-c1c(O)c(C)nn(C)c1=O [3-057] | 5 (Herbicidal rate of 90% or more (almost completely withered)) |

system: southern crabgrass; test: Test Example 4: herbicidal effect by soil treatment (Table 19, symbol F); assay type: in vivo, southern crabgrass (Digitaria ciliaris); conditions: amount of applied herbicide 320 g/ha
Method in brief: as §2

| Compound | F: southern crabgrass, herbicidal effect grade |
| --- | --- |
| CCOc1cc(F)ccc1-c1sc2cc(C)ccc2c1-c1c(O)c(C)nn(C)c1=O [3-057] | 5 (Herbicidal rate of 90% or more (almost completely withered)) |

system: green foxtail; test: Test Example 4: herbicidal effect by soil treatment (Table 19, symbol G); assay type: in vivo, green foxtail (Setaria viridis); conditions: amount of applied herbicide 320 g/ha
Method in brief: as §2

| Compound | G: green foxtail, herbicidal effect grade |
| --- | --- |
| CCOc1cc(F)ccc1-c1sc2cc(C)ccc2c1-c1c(O)c(C)nn(C)c1=O [3-057] | 4 (Herbicidal rate of 70% or more and less than 90%) |

system: blackgrass; test: Test Example 5: herbicidal effect by foliage application, plastic box (Table 20, symbol J); assay type: in vivo, blackgrass (Alopecurus myosuroides); conditions: foliage application, 320 g/ha, three weeks after application
Method in brief: as §1

| Compound | J: blackgrass, herbicidal effect grade |
| --- | --- |
| CCOc1cc(F)ccc1-c1sc2cc(C)ccc2c1-c1c(O)c(C)nn(C)c1=O [3-057] | 5 (Herbicidal rate of 90% or more (almost completely withered)) |

system: redroot pigweed; test: Test Example 5: herbicidal effect by foliage application, plastic box (Table 20, symbol N); assay type: in vivo, redroot pigweed (Amaranthus retroflexus); conditions: foliage application, 320 g/ha, three weeks after application
Method in brief: as §1

| Compound | N: redroot pigweed, herbicidal effect grade |
| --- | --- |
| CCOc1cc(F)ccc1-c1sc2cc(C)ccc2c1-c1c(O)c(C)nn(C)c1=O [3-057] | 5 (Herbicidal rate of 90% or more (almost completely withered)) |

system: southern crabgrass; test: Test Example 5: herbicidal effect by foliage application, plastic box (Table 20, symbol F); assay type: in vivo, southern crabgrass (Digitaria ciliaris); conditions: foliage application, 320 g/ha, three weeks after application
Method in brief: as §1

| Compound | F: southern crabgrass, herbicidal effect grade |
| --- | --- |
| CCOc1cc(F)ccc1-c1sc2cc(C)ccc2c1-c1c(O)c(C)nn(C)c1=O [3-057] | 5 (Herbicidal rate of 90% or more (almost completely withered)) |

system: persian speedwell; test: Test Example 5: herbicidal effect by foliage application, plastic box (Table 20, symbol R); assay type: in vivo, Persian speedwell (Veronica persica); conditions: foliage application, 320 g/ha, three weeks after application
Method in brief: as §1

| Compound | R: persian speedwell, herbicidal effect grade |
| --- | --- |
| CCOc1cc(F)ccc1-c1sc2cc(C)ccc2c1-c1c(O)c(C)nn(C)c1=O [3-057] | 5 (Herbicidal rate of 90% or more (almost completely withered)) |

system: barnyard grass; test: Test Example 4: herbicidal effect by soil treatment (Table 19, symbol H); assay type: in vivo, barnyard grass (Echinochloa crus-galli); conditions: amount of applied herbicide 320 g/ha
Method in brief: as §2

| Compound | H: barnyard grass, herbicidal effect grade |
| --- | --- |
| CCOc1cc(F)ccc1-c1sc2cc(C)ccc2c1-c1c(O)c(C)nn(C)c1=O [3-057] | 4 (Herbicidal rate of 70% or more and less than 90%) |

system: blackgrass; test: Test Example 4: herbicidal effect by soil treatment (Table 19, symbol J); assay type: in vivo, blackgrass (Alopecurus myosuroides); conditions: amount of applied herbicide 320 g/ha
Method in brief: as §2

| Compound | J: blackgrass, herbicidal effect grade |
| --- | --- |
| CCOc1cc(F)ccc1-c1sc2cc(C)ccc2c1-c1c(O)c(C)nn(C)c1=O [3-057] | 4 (Herbicidal rate of 70% or more and less than 90%) |

system: redroot pigweed; test: Test Example 4: herbicidal effect by soil treatment (Table 19, symbol N); assay type: in vivo, redroot pigweed (Amaranthus retroflexus); conditions: amount of applied herbicide 320 g/ha
Method in brief: as §2

| Compound | N: redroot pigweed, herbicidal effect grade |
| --- | --- |
| CCOc1cc(F)ccc1-c1sc2cc(C)ccc2c1-c1c(O)c(C)nn(C)c1=O [3-057] | 5 (Herbicidal rate of 90% or more (almost completely withered)) |

system: windgrass; test: Test Example 4: herbicidal effect by soil treatment (Table 19, symbol L); assay type: in vivo, windgrass (Apera spica-venti); conditions: amount of applied herbicide 320 g/ha
Method in brief: as §2

| Compound | L: windgrass, herbicidal effect grade |
| --- | --- |
| CCOc1cc(F)ccc1-c1sc2cc(C)ccc2c1-c1c(O)c(C)nn(C)c1=O [3-057] | 5 (Herbicidal rate of 90% or more (almost completely withered)) |

system: barnyard grass; test: Test Example 3: herbicidal effect by foliage application, Wagner pot (Table 18, symbol H); assay type: in vivo, barnyard grass (Echinochloa crus-galli); conditions: 320 g/ha
Method in brief: (§3)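 Plants were sown in alluvial soil held under 0.1–0.5 cm standing water and grown 14 days in a greenhouse at 25–30 °C. An emulsifiable formulation, water-diluted to the set dose, was then sprayed onto the foliage, and effects were scored three weeks later using previously defined criteria.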

| Compound | herbicidal effect on barnyard grass (H) |
| --- | --- |
| CCOc1cc(F)ccc1-c1sc2cc(C)ccc2c1-c1c(O)c(C)nn(C)c1=O [3-057] | 5 (Herbicidal rate of 90% or more (almost completely withered)) |

system: green foxtail; test: Test Example 5: herbicidal effect by foliage application, plastic box (Table 20, symbol G); assay type: in vivo, green foxtail (Setaria viridis); conditions: foliage application, 320 g/ha, three weeks after application
Method in brief: as §1

| Compound | G: green foxtail, herbicidal effect grade |
| --- | --- |
| CCOc1cc(F)ccc1-c1sc2cc(C)ccc2c1-c1c(O)c(C)nn(C)c1=O [3-057] | 5 (Herbicidal rate of 90% or more (almost completely withered)) |

system: late watergrass; test: Test Example 1: herbicidal activity, application before weed generation under submerged conditions (Table 16, symbol A); assay type: in vivo, late watergrass (Echinochloa oryzicola); conditions: amount of applied herbicide 320 g/ha
Method in brief: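 Alluvial soil was flooded to 4 cm depth, weed seeds were sown mixed and 2.5-leaf rice seedlings were transplanted. On sowing day, the compound's emulsion, diluted in water to a set dose, was applied to the water surface. Plants grew at 25–30 °C and were scored 0–5 after three weeks.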

| Compound | Herbicidal effect, A: late watergrass |
| --- | --- |
| CCOc1cc(F)ccc1-c1sc2cc(C)ccc2c1-c1c(O)c(C)nn(C)c1=O [3-057] | 5 (Herbicidal rate of 90% or more (almost completely withered)) |

system: Chinese sprangletop; test: Test Example 3: herbicidal effect by foliage application, Wagner pot (Table 18, symbol D); assay type: in vivo, chinese sprangletop (Leptochloa chinensis); conditions: 320 g/ha
Method in brief: as §3

| Compound | herbicidal effect on Chinese sprangletop (D) |
| --- | --- |
| CCOc1cc(F)ccc1-c1sc2cc(C)ccc2c1-c1c(O)c(C)nn(C)c1=O [3-057] | 3 (Herbicidal rate of 40% or more and less than 70%) |
